Source: ChEMBL document CHEMBL1201862, “PubChem BioAssay data set” (2004)
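A five-concentration, 48-hour dose response in 96-well plates underlies each endpoint, interpolated linearly between surrounding concentrations. GI50 marks 50% less growth.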 The source made the active and inactive calls. No stated cut-off is given here; in the data, active = GI50 up to about 1.1 µM and inactive = higher.

Columns and labels:
Assay in all cases: inhibition of tumour cell growth, NCI panel, 48 h
[1] = test system: HL-60
[2] = test system: SR
[3] = test system: SK-OV-3
[4] = test system: COLO 205
[5] = test system: CCRF-CEM
[6] = test system: SK-MEL-28
[7] = test system: SK-MEL-2
[8] = test system: EKVX
[9] = test system: SF-268
[10] = test system: MOLT-4
[11] = test system: OVCAR-4
[12] = test system: M19-MEL
[13] = test system: OVCAR-8
[14] = test system: MDA-N
[15] = test system: RPMI-8226
[16] = test system: A549
[17] = test system: HCT-116
[18] = test system: BT-549
[19] = test system: HOP-62
[20] = test system: UACC-257

Compound: Cc1cc2c(cc1C)[n+]([O-])c(C(=O)/C=C/c1ccc3c(c1)OCO3)c(C)[n+]2[O-]
- GI50 [1]: > 100 µM (inactive)
- GI50 [2]: > 100 µM (inactive)
- GI50 [3]: 19.8 µM (inactive)
- GI50 [4]: > 100 µM (inactive)
- GI50 [5]: > 100 µM (inactive)
- GI50 [6]: > 100 µM (inactive)
- GI50 [7]: 27.9 µM (inactive)
- GI50 [8]: > 70 µM (inactive)
- GI50 [9]: 29.4 µM (inactive)
- GI50 [10]: > 100 µM (inactive)
- GI50 [11]: > 100 µM (inactive)
- GI50 [12]: > 100 µM (inactive)
- GI50 [13]: > 100 µM (inactive)
- GI50 [14]: > 100 µM (inactive)
- GI50 [15]: > 100 µM (inactive)
- GI50 [16]: > 92.9 µM (inactive)
- GI50 [17]: 53.8 µM (inactive)
- GI50 [18]: 69.3 µM (inactive)
- GI50 [19]: 21 µM (inactive)
- GI50 [20]: > 88.7 µM (inactive)

Compound: CC1(C)c2ccccc2N2C(c3ccccc3)=NOC21C (stereo unspecified)
- GI50 [1]: > 100 µM (inactive)
- GI50 [2]: > 100 µM (inactive)
- GI50 [3]: > 100 µM (inactive)
- GI50 [4]: > 100 µM (inactive)
- GI50 [5]: > 100 µM (inactive)
- GI50 [6]: > 100 µM (inactive)
- GI50 [7]: > 100 µM (inactive)
- GI50 [8]: > 100 µM (inactive)
- GI50 [9]: > 100 µM (inactive)
- GI50 [10]: > 100 µM (inactive)
- GI50 [11]: > 100 µM (inactive)
- GI50 [12]: > 100 µM (inactive)
- GI50 [13]: > 100 µM (inactive)
- GI50 [15]: > 100 µM (inactive)
- GI50 [16]: > 100 µM (inactive)
- GI50 [17]: > 100 µM (inactive)
- GI50 [19]: > 100 µM (inactive)
- GI50 [20]: > 100 µM (inactive)

Compound: Cc1cc(Cl)ccc1NC(=O)C1C(=O)N(c2ccc(Cl)cc2C)C(=O)/C1=N\N (stereo unspecified)
- GI50 [1]: 24.5 µM (inactive)
- GI50 [2]: 26.6 µM (inactive)
- GI50 [3]: 97.5 µM (inactive)
- GI50 [4]: 56.4 µM (inactive)
- GI50 [5]: 28.6 µM (inactive)
- GI50 [6]: 52.5 µM (inactive)
- GI50 [7]: 27 µM (inactive)
- GI50 [8]: 57.5 µM (inactive)
- GI50 [9]: 26.5 µM (inactive)
- GI50 [10]: 27.9 µM (inactive)
- GI50 [11]: 83.2 µM (inactive)
- GI50 [12]: 43.2 µM (inactive)
- GI50 [13]: 48.3 µM (inactive)
- GI50 [15]: 25.4 µM (inactive)
- GI50 [16]: 34.4 µM (inactive)
- GI50 [17]: 30.5 µM (inactive)
- GI50 [19]: 40.7 µM (inactive)
- GI50 [20]: > 100 µM (inactive)

Compound: CCC1(OC(=O)CN2CCN(CCO)CC2)C(=O)OCc2c1cc1n(c2=O)Cc2cc3ccccc3nc2-1 (stereo unspecified)
- GI50 [1]: 0.286 µM (active)
- GI50 [2]: 0.0221 µM (active)
- GI50 [3]: 1.17 µM (inactive)
- GI50 [4]: 2.04 µM (inactive)
- GI50 [5]: 0.0324 µM (active)
- GI50 [6]: 3.33 µM (inactive)
- GI50 [7]: 4.25 µM (inactive)
- GI50 [8]: 4.51 µM (inactive)
- GI50 [9]: 0.138 µM (active)
- GI50 [10]: 0.034 µM (active)
- GI50 [11]: 1.77 µM (inactive)
- GI50 [12]: 0.789 µM (active)
- GI50 [13]: 0.522 µM (active)
- GI50 [14]: 1.63 µM (inactive)
- GI50 [15]: 0.962 µM (active)
- GI50 [16]: 0.307 µM (active)
- GI50 [17]: 0.417 µM (active)
- GI50 [18]: 0.736 µM (active)
- GI50 [19]: 0.0867 µM (active)
- GI50 [20]: 0.771 µM (active)

Compound: NC(=O)c1cccc([C@@H]2O[C@H](CO)[C@@H](O)[C@H]2O)c1
- GI50 [1]: 3.21 µM (inactive)
- GI50 [2]: 23.7 µM (inactive)
- GI50 [3]: 7.21 µM (inactive)
- GI50 [4]: 12.2 µM (inactive)
- GI50 [5]: 1.33 µM (inactive)
- GI50 [6]: 6.98 µM (inactive)
- GI50 [7]: > 97.1 µM (inactive)
- GI50 [8]: 68.7 µM (inactive)
- GI50 [9]: 6.81 µM (inactive)
- GI50 [10]: 1.23 µM (inactive)
- GI50 [11]: 5.45 µM (inactive)
- GI50 [12]: 21 µM (inactive)
- GI50 [13]: 3.79 µM (inactive)
- GI50 [14]: 24.1 µM (inactive)
- GI50 [15]: 4.42 µM (inactive)
- GI50 [16]: 27.2 µM (inactive)
- GI50 [17]: 18.5 µM (inactive)
- GI50 [18]: 14.5 µM (inactive)
- GI50 [19]: 8.3 µM (inactive)
- GI50 [20]: > 100 µM (inactive)
